Test results taken from US9073821B2, “Hydroxamic acid derivative” (priority 2010, dated 2015).
Like-named read-outs stand apart in the source and are kept apart here.

Target: Pseudomonas aeruginosa LpxC enzyme (Pseudomonas aeruginosa (strain ATCC 15692 / DSM 22644 / CIP 104116 / JCM 14847 / LMG 12228 / 1C / PRS 101 / PAO1), UniProt P47205)
Experiment: biochemical
Type: biochemical
[1] = inhibitory activity on Pseudomonas aeruginosa LpxC enzyme, class symbols A/B/C, read-out: Enzyme inhibitory activity
[2] = class symbols A/B/C by IC50, Table 3, read-out: Enzyme inhibitory activity (inhibitory activity on Pseudomonas aeruginosa LpxC enzyme)

Row | SMILES | IC50 [1] [nM] | IC50 [2] [nM]
1 | CNC(=O)C(C(=O)NO)N(C)C(=O)c1ccc(/C=C/c2ccccc2)cc1 (stereo not shown) [Compound 63, N-hydroxy-N′-methyl-2-(methyl {4-[(E)-2-phenylethenyl]benzoyl}amino)propanediamide] | 10 to 100 | 
2 | CNC(=O)C(C(=O)NO)N(C)C(=O)c1ccc(-c2ccc(C(F)(F)F)cn2)cc1 (stereo not shown) [Compound 297, N-hydroxy-N′-methyl-2-[methyl({4-[5-(trifluoromethyl)pyridin-2-yl]phenyl}carbonyl)amino]propanediamide] | > 100 | 
3 | CCOC1CN(Cc2ccc(C#Cc3ccc(C(=O)N(C)C(C(=O)NC)C(=O)NO)cc3)cc2Cl)C1 (stereo not shown) [Compound 579, 2-[{[4-({3-chloro-4-[(3-ethoxyazetidin-1-yl)methyl]phenyl}ethynyl)phenyl]carbonyl}(methyl)amino]-N-hydroxy-N′-methylpropanediamide] |  | < 10
4 | CN(C)C(=O)C(NC(=O)c1ccc(-c2ccc(OCCO)cc2)cc1)C(=O)NO (stereo not shown) [Compound 118, N′-hydroxy-2-({[4′-(2-hydroxyethoxy)biphenyl-4-yl]carbonyl}amino)-N,N-dimethylpropanediamide] | > 100 | 
5 | CNC(=O)C(C(=O)NO)N(C)C(=O)c1ccc(-c2ccc(OCCC(O)CO)cc2)cc1 (stereo not shown) [Compound 181, 2-[{[4′-(3,4-dihydroxybutoxy)biphenyl-4-yl]carbonyl}(methyl)amino]-N-hydroxy-N′-methylpropanediamide] | < 10 | 
6 | CNC(=O)C(C(=O)NO)N(C)C(=O)c1ccc(C#Cc2ccc(CN3CCC(O)CC3)cc2)cc1 (stereo not shown) [Compound 334, N-hydroxy-2-[{[4-({4-[(4-hydroxypiperidin-1-yl)methyl]phenyl}ethynyl)phenyl]carbonyl}(methyl)amino]-N′-methylpropanediamide] | < 10 | 
7 | CNC(=O)C(C(=O)NO)N(C)C(=O)c1ccc(C#CC#Cc2ccc(CNCC(C)(C)C)cc2)cc1 (stereo not shown) [Compound 493, 2-[({4-[4-(4-{[(2,2-dimethylpropyl)amino]methyl}phenyl)buta-1,3-diyn-1-yl]phenyl}carbonyl)(methyl)amino]-N-hydroxy-N′-methylpropanediamide] | < 10 | 
8 | CNC(=O)C(C(=O)NO)N(C)C(=O)c1ccc(C#Cc2coc(CNCC(F)(F)F)c2)cc1 (stereo not shown) [Compound 488, N-hydroxy-N′-methyl-2-[methyl({4-[(5-{[(2,2,2-trifluoroethyl)amino]methyl}furan-3-yl)ethynyl]phenyl}carbonyl)amino]propanediamide] | < 10 | 
9 | CNC(=O)C(C(=O)NO)N(C)C(=O)c1ccc(-c2ccc(C(C)O)cc2)cc1 (stereo not shown) [Compound 261, N-hydroxy-2-[{[4′-(1-hydroxyethyl)biphenyl-4-yl]carbonyl}(methyl)amino]-N′-methylpropanediamide] | 10 to 100 | 
10 | CNC(=O)C(C(=O)NO)N(C)C(=O)c1ccc(-c2ccc(OCCCCO)cc2)cc1 (stereo not shown) [Compound 180, N-hydroxy-2-[{[4′-(4-hydroxybutoxy)biphenyl-4-yl]carbonyl}(methyl)amino]-N′-methylpropanediamide] | < 10 | 
11 | CNC(=O)C(C(=O)NO)N(C)C(=O)c1ccc(-c2ccc(CCN3CCOCC3)cc2)cc1 (stereo not shown) [Compound 236, N-hydroxy-N′-methyl-2-[methyl({4′-[2-(morpholin-4-yl)ethyl]biphenyl-4-yl}carbonyl)amino]propanediamide] | < 10 | 
12 | CCCNc1ccc(C#Cc2ccc(C(=O)N(C)C(C(=O)NC)C(=O)NO)cc2)nc1 (stereo not shown) [Compound 407, N-hydroxy-N′-methyl-2-{methyl[(4-{[5-(propylamino)pyridin-2-yl]ethynyl}phenyl)carbonyl]amino}propanediamide] | 10 to 100 | 
13 | CNC(=O)C(C(=O)NO)N(C)C(=O)c1ccc(-c2ccc(OCCCN3CC=CCC3)cc2)cc1 (stereo not shown) [Compound 263, 2-[({4′-[3-(3,6-dihydropyridin-1(2H)-yl)propoxy]biphenyl-4-yl}carbonyl)(methyl)amino]-N-hydroxy-N′-methylpropanediamide] | 10 to 100 | 
14 | CNC(=O)C(C(=O)NO)N(C)C(=O)c1ccc(-c2ccc(OCCN3CCOCC3)cc2)cc1 (stereo not shown) [Compound 243, N-hydroxy-N′-methyl-2-[methyl({4′-[2-(morpholin-4-yl)ethoxy]biphenyl-4-yl}carbonyl)amino]propanediamide] | 10 to 100 | 
15 | CNC(=O)C(C(=O)NO)N(C)C(=O)c1ccc(-c2ccc(OCc3ccc(N4CCN(C)CC4)cc3)cc2)cc1 (stereo not shown) [Compound 90, N-hydroxy-N′-methyl-2-{methyl[(4′-{[4-(4-methylpiperazin-1-yl)benzyl]oxy}biphenyl-4-yl)carbonyl]amino}propanediamide] | < 10 | 
16 | CCOC1CN(Cc2ccc(C#Cc3ccc(C(=O)N(C)C(C(=O)NC)C(=O)NO)cc3)c(F)c2F)C1 (stereo not shown) [Compound 580, 2-[{[4-({4-[(3-ethoxyazetidin-1-yl)methyl]-2,3-difluorophenyl}ethynyl)phenyl]carbonyl}(methyl)amino]-N-hydroxy-N′-methylpropanediamide] |  | < 10
17 | CNC(=O)C(C(=O)NO)N(C)C(=O)c1ccc(-c2cc(F)c(NC)c(F)c2)cc1 (stereo not shown) [Compound 69, 2-[{[3′,5′-difluoro-4′-(methylamino)biphenyl-4-yl]carbonyl}(methyl)amino]-N-hydroxy-N′-methylpropanediamide] | < 10 | 
18 | CNC(=O)C(C(=O)NO)N(C)C(=O)c1ccc(-c2ccc(OCCCN3CCS(=O)(=O)CC3)cc2)cc1 (stereo not shown) [Compound 289, 2-[({4′-[3-(1,1-dioxidothiomorpholin-4-yl)propoxy]biphenyl-4-yl}carbonyl)(methyl)amino]-N-hydroxy-N′-methylpropanediamide] | < 10 | 
19 | CNC(=O)C(C(=O)NO)N(C)C(=O)c1ccc(-c2ccc(N3CC(OC)C3)cc2)cc1 (stereo not shown) [Compound 229, N-hydroxy-2-[{[4′-(3-methoxyazetidin-1-yl)biphenyl-4-yl]carbonyl}(methyl)amino]-N′-methylpropanediamide] | < 10 | 
20 | CNC(=O)C(C(=O)NO)N(C)C(=O)c1ccc(-c2ccc(/C=N/N(C)C)cc2)cc1 (stereo not shown) [Compound 275, 2-[({4′-[(E)-(dimethylhydrazinylidene)methyl]biphenyl-4-yl}carbonyl)(methyl)amino]-N-hydroxy-N′-methylpropanediamide] | < 10 | 
21 | CNC(=O)C(C(=O)NO)N(C)C(=O)c1ccc(-c2ccc(F)cn2)cc1 (stereo not shown) [Compound 108, 2-{[4-(5-fluoropyridin-2-yl)benzoyl](methyl)amino}-N-hydroxy-N′-methylpropanediamide] | > 100 | 

Next, values leading:

Row | IC50 [1] [nM] | IC50 [2] [nM] | SMILES
22 | > 100 |  | CNC(=O)C(C(=O)NO)N(C)C(=O)C1CCC(c2ccc(Cl)cc2)CC1 (stereo not shown) [Compound 273, 2-[{[4-(4-chlorophenyl)cyclohexyl]carbonyl}(methyl)amino]-N-hydroxy-N′-methylpropanediamide]
23 | 10 to 100 |  | CNC(=O)C(C(=O)NO)N(C)C(=O)c1ccc(-c2ccc(CNCC(F)F)cc2)cc1 (stereo not shown) [Compound 204, 2-{[(4′-{[(2,2-difluoroethyl)amino]methyl}biphenyl-4-yl)carbonyl](methyl)amino}-N-hydroxy-N′-methylpropanediamide]
24 | 10 to 100 |  | CNC(=O)C(C(=O)NO)N(C)C(=O)c1ccc(C#Cc2ccc(CNC3CCC3)cc2)cc1 (stereo not shown) [Compound 316, 2-[{[4-({4-[(cyclobutylamino)methyl]phenyl}ethynyl)phenyl]carbonyl}(methyl)amino]-N-hydroxy-N′-methylpropanediamide]
25 |  | < 10 | CNC(=O)C(C(=O)NO)N(C)C(=O)c1ccc(C#Cc2ccc(CN3CC4CC4C3)cc2)cc1 (stereo not shown) [Compound 515, 2-{[(4-{[4-(3-azabicyclo[3.1.0]hex-3-ylmethyl)phenyl]ethynyl}phenyl)carbonyl](methyl)amino}-N-hydroxy-N′-methylpropanediamide]
26 | < 10 |  | CNC(=O)C(C(=O)NO)N(C)C(=O)c1ccc(-c2ccc(N3CCCC3)cc2)cc1 (stereo not shown) [Compound 256, N-hydroxy-N′-methyl-2-(methyl {[4′-(pyrrolidin-1-yl)biphenyl-4-yl]carbonyl}amino)propanediamide]
27 | < 10 |  | CNC(=O)C(C(=O)NO)N(C)C(=O)c1ccc(-c2ccc(OCCCN3CCSCC3)cc2)cc1 (stereo not shown) [Compound 288, N-hydroxy-N′-methyl-2-[methyl({4′-[3-(thiomorpholin-4-yl)propoxy]biphenyl-4-yl}carbonyl)amino]propanediamide]
28 | < 10 |  | CNC(=O)C(C(=O)NO)N(C)C(=O)c1ccc(-c2ccc3c(c2)OC(C)(C)O3)cc1 (stereo not shown) [Compound 269, 2-{[4-(2,2-dimethyl-1,3-benzodioxol-5-yl)benzoyl](methyl)amino}-N-hydroxy-N′-methylpropanediamide]
29 | < 10 |  | CCCOc1ccc(-c2ccc(C(=O)N(C)C(C(=O)NC)C(=O)NO)cc2)cc1 (stereo not shown) [Compound 212, N-hydroxy-N′-methyl-2-{methyl[(4′-propoxybiphenyl-4-yl)carbonyl]amino}propanediamide]
30 |  | < 10 | CNC(=O)[C@@](C)(C(=O)NO)N(C)C(=O)c1ccc(C#C/C=C/CCCOC)cc1 [Compound 597, (2S)-N-hydroxy-2-[{4-[(3E)-7-methoxyhept-3-en-1-yn-1-yl]benzoyl}(methyl)amino]-N′,2-dimethylpropanediamide]
31 | > 100 |  | CN(C)C(=O)C(C(=O)NO)N(C)C(=O)c1ccc(-c2ccccc2)cc1 (stereo not shown) [Compound 80, 2-[(biphenyl-4-ylcarbonyl)(methyl)amino]-N′-hydroxy-N,N-dimethylpropanediamide]
32 |  | 10 to 100 | CNC(=O)C(C(=O)NO)N(C)C(=O)c1ccc(C#Cc2ccc(COCC(C)(C)N)cc2)cc1 (stereo not shown) [Compound 508, 2-[{[4-({4-[(2-amino-2-methylpropoxy)methyl]phenyl}ethynyl)phenyl]carbonyl}(methyl)amino]-N-hydroxy-N′-methylpropanediamide]
33 | 10 to 100 |  | CNC(=O)C(C(=O)NO)N(C)C(=O)c1ccc(-c2cccs2)cc1 (stereo not shown) [Compound 308, N-hydroxy-N′-methyl-2-(methyl {[4-(thiophen-2-yl)phenyl]carbonyl}amino)propanediamide]
34 | > 100 |  | CNC(=O)C(C(=O)NO)N(C)C(=O)c1ccc(-c2ccc(C)nc2)cc1 (stereo not shown) [Compound 450, N-hydroxy-N′-methyl-2-(methyl {[4-(6-methylpyridin-3-yl)phenyl]carbonyl}amino)propanediamide]
